Here are results for 48 compounds from patent publication US20240150330A1, “CHROMANS AND BENZOFURANS AS 5-HT1A AND TAAR1 AGONISTS” (Sunovion Pharmaceuticals Inc., priority 2021, published 2024).

The experiment has as its target T1, TAAR1 receptor (UniProt Q96RJ0).
T1 sequence (Q96RJ0 1-339): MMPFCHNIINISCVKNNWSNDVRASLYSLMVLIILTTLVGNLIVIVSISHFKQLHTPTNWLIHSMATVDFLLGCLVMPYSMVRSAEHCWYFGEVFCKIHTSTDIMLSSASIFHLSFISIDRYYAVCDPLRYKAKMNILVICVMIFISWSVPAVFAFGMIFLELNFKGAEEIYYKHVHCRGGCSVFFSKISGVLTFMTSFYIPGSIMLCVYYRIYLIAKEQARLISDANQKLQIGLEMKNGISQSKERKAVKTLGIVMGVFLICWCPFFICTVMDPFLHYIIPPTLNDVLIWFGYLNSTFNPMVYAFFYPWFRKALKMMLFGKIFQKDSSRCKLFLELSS
The experiment is described as follows: TAAR1 Agonist cAMP Assay. Format: cell-based, human or mouse. The note with it: CHO-K1 cells expressing TAAR1; cAMP HTRF; 30 minutes at room temperature. The procedure: CHO-K1 cells expressing the human TAAR1 receptor (Accession number NP_612200.1) or mouse TAAR1 receptor (Accession number NP_444435.1) were grown in media (Advanced DMEM supplemented with 1% dialyzed fetal bovine serum) without antibiotics. The cells were detached by gentle flushing with phosphate buffered saline containing 5 mM EDTA, recovered by centrifugation and resuspended in assay buffer (Krebs-Ringers Henseleit buffer: 5 mM KCl, 1.25 mM MgSO4, 124 mM NaCl, 25 mM HEPES, 13.3 mM Glucose, 1.25 mM KH2PO4, 1.45 mM CaCl2, 0.5 g/L BSA, supplemented with 1 mM isobutylmethylxanthine). Testing was performed in 384-well plates. 5 μl of cells (3000 cells) were mixed with 5 μl of the test compound diluted in assay buffer and then incubated for 30 minutes at room temperature. cAMP levels were determined using the Cisbio cAMP Gs dynamic HTRF kit (Cisbio, Bedford, MA). The results of the testing are shown in Table 3, with EC50 ranges designated as follows: • A=0.1 μM to 1 μM • B=0.01 μM to <0.1 μM • C=0.001 μM to <0.01 μM • D=0.0001 μM to <0.001 μM
(Time-resolved FRET reads energy transfer from a long-lived donor to a nearby acceptor.)

pEC50: −log10 of the molar value.

For orientation: pEC50 means the negative decadic logarithm of the EC50, by convention in mol/L. `CNC[C@@H]1CCOc2c(-c3ccncc3OC)cccc21` [Compound 12, (R)-1-(8-(3-methoxypyridin-4-yl)chroman-4-yl)-N-methylmethanamine] had a pEC50 of 6.00 to 7.00.

In turn, `CNC[C@@H]1CCOc2c(-c3cnc(C)nc3)cccc21` [Compound 43] had a pEC50 of 6.00 to 7.00.

`Cc1ccc(-c2cccc3c2OCC[C@H]3CN)cn1` [Compound 13, (R)-(8-(6-methylpyridin-3-yl)chroman-4-yl)methanamine] showed a negative-log EC50 (pEC50) of 9.00 to 10.00. Consider `CNC[C@@H]1CCOc2c(-c3nccs3)cccc21` [Compound 56, (R)—N-methyl-1-(8-(thiazol-2-yl)chroman-4-yl)methanamine], for which the pEC50 was 7.00 to 8.00. `Cc1cc(-c2cccc3c2OCC[C@H]3CN)c(C)cn1` [Compound 19, (R)-(8-(2,5-dimethylpyridin-4-yl)chroman-4-yl)methanamine]: the pEC50 is 8.00 to 9.00. `CNC[C@@H]1CCOc2c(-c3cscn3)cccc21` [Compound 50] gave a pEC50 of 8.00 to 9.00. Compound `Cc1ncccc1-c1cccc2c1OCC[C@H]2CN` [Compound 27] showed a pEC50 of 7.00 to 8.00.

In the case of `Cc1cc(C)c(-c2cccc3c2OCC[C@H]3CN)cn1` [Compound 29, 1-[(4R)-8-(4,6-dimethylpyridin-3-yl)-3,4-dihydro-2H-1-benzopyran-4-yl]methanamine], the pEC50 was 8.00 to 9.00.

Consider `CNC[C@@H]1CCOc2c(-c3cccnc3C)cccc21` [Compound 28], for which the pEC50 is 7.00 to 8.00. With `CNC[C@H]1CCOc2c(-c3ccnc(C)c3)cccc21` [Compound 16, (S)—N-methyl-1-(8-(2-methylpyridin-4-yl)chroman-4-yl)methanamine], the pEC50 is 7.00 to 8.00. The compound `CNC[C@@H]1CCOc2c(-c3cnn(C)c3C)cccc21` [Compound 48] had a pEC50 of 8.00 to 9.00. Take `CNC[C@@H]1CCOc2c(-c3ccnc(C(F)(F)F)c3)cccc21` [Compound 10]: the pEC50 is 8.00 to 9.00.

Compound `CNC[C@@H]1CCOc2c(-c3ccnnc3)cccc21` [Compound 41] had a pEC50 of 7.00 to 8.00. As for `CNC[C@@H]1CCOc2c(-c3cn(C)nc3C)cccc21` [Compound 49], the negative logarithm of the EC50 (pEC50) was 7.00 to 8.00. `CNCC1CCOc2c(-c3cnccc3C)cccc21` (stereo in doubt) [Compound 6, (R)—N-methyl-1-(8-(4-methylpyridin-3-yl)chroman-4-yl)methanamine] showed a pEC50 of 8.00 to 9.00.

As to `Cc1nccc(-c2cccc3c2OCC[C@H]3CN)c1C` [Compound 30, (R)-(8-(2,3-dimethylpyridin-4-yl)chroman-4-yl)methanamine], the pEC50 was 7.00 to 8.00. `CNC[C@@H]1CCOc2c(-c3ccnc(C)c3)cccc21` [Compound 18, (R)—N-methyl-1-(8-(2-methylpyridin-4-yl)chroman-4-yl)methanamine] had a negative logarithm of the EC50 (pEC50) of 8.00 to 9.00.

For the compound `Cc1cnccc1-c1cccc2c1OCC[C@H]2CN` [Compound 20, (R)-(8-(3-methylpyridin-4-yl)chroman-4-yl)methanamine], the pEC50 is 8.00 to 9.00. Take `NC[C@@H]1CCOc2c(-c3ccc(C(F)(F)F)nc3)cccc21` [Compound 7, 1-[(4R)-8-[6-(trifluoromethyl)pyridin-3-yl]-3,4-dihydro-2H-1-benzopyran-4-yl]methanamine]: the pEC50 is 7.00 to 8.00.

With `CNC[C@@H]1CCOc2c(-c3cncs3)cccc21` [Compound 39], the negative-log EC50 (pEC50) was 8.00 to 9.00. Compound `CNC[C@@H]1CCOc2c(-c3ccc(C)nc3)cccc21` [Compound 14, (R)—N-methyl-1-(8-(6-methylpyridin-3-yl)chroman-4-yl)methanamine] had a pEC50 of 8.00 to 9.00.

`NC[C@@H]1CCOc2c(-c3ccnnc3)cccc21` [Compound 40]: the negative logarithm of the EC50 (pEC50) was 8.00 to 9.00. The value for `CNC[C@@H]1CCOc2c(-c3cncnc3)cccc21` [Compound 32] was 8.00 to 9.00; that for `NC[C@@H]1CCOc2c(-c3cncnc3)cccc21` [Compound 31] was 8.00 to 9.00. Consider `NC[C@@H]1CCOc2c(-c3cnc[nH]3)cccc21` [Compound 44, 1-[(4R)-8-(1H-imidazol-5-yl)-3,4-dihydro-2H-1-benzopyran-4-yl]methanamine], for which the negative logarithm of the EC50 (pEC50) is 8.00 to 9.00.

Take `NC[C@H]1CCOc2c(-c3cccnc3)cccc21` [Compound 24]: the pEC50 is 7.00 to 8.00. In turn, `Cc1ncc(-c2cccc3c2OCC[C@H]3CN)cn1` [Compound 26] gave a pEC50 of 7.00 to 8.00. Consider `Cn1cncc1-c1cccc2c1OCC[C@H]2CN` [Compound 36], for which the pEC50 is 8.00 to 9.00.

`CNC[C@@H]1CCOc2c(-c3cnsc3)cccc21` [Compound 57, (R)-1-(8-(isothiazol-4-yl)chroman-4-yl)-N-methylmethanamine] showed a pEC50 of 8.00 to 9.00. Consider `CNC[C@@H]1CCOc2c(-c3cncn3C)cccc21` [Compound 37], for which the pEC50 was 7.00 to 8.00.

On to `CNC[C@@H]1CCOc2c(-c3cc(C)ncc3C)cccc21` [Compound 33], for which the pEC50 is 8.00 to 9.00. Turning to `COc1cnccc1-c1cccc2c1OCC[C@H]2CN` [Compound 11, [(4R)-8-(3-methoxypyridin-4-yl)-3,4-dihydro-2H-1-benzopyran-4-yl]methanamine], the pEC50 is 8.00 to 9.00. Next, `Cc1cc(-c2cccc3c2OCC[C@@H]3CN)ccn1` [Compound 15, (S)-(8-(2-methylpyridin-4-yl)chroman-4-yl)methanamine]: 8.00 to 9.00; `CNC[C@@H]1CCOc2c(-c3ccc(F)cc3)cccc21` [Compound 53, (R)-1-(8-(4-fluorophenyl)chroman-4-yl)-N-methylmethanamine]: 8.00 to 9.00; `CNC[C@@H]1CCOc2c(-c3cnn(C)c3)cccc21` [Compound 54, (R)—N-methyl-1-(8-(1-methyl-1H-pyrazol-4-yl)chroman-4-yl)methanamine]: 8.00 to 9.00.

On to `Cc1ccncc1-c1cccc2c1OCC[C@H]2CN` [Compound 5, (R)-(8-(4-methylpyridin-3-yl)chroman-4-yl)methanamine], for which the pEC50 is 8.00 to 9.00.

Turning to `CNC[C@@H]1CCOc2c(-c3ccnc(C)c3C)cccc21` [Compound 42], the pEC50 was 7.00 to 8.00. Next, `CNC[C@H]1CCOc2c(-c3cccnc3)cccc21` [Compound 25]: 7.00 to 8.00; `Cc1cc(-c2cccc3c2OCC[C@H]3CN)ccn1` [Compound 17, (R)-(8-(2-methylpyridin-4-yl)chroman-4-yl)methanamine]: 8.00 to 9.00; `NC[C@@H]1CCOc2c(-c3cccnc3)cccc21` [Compound 22]: 9.00 to 10.00.

For `NC[C@@H]1CCOc2c(-c3cnccn3)cccc21` [Compound 34], the pEC50 is 7.00 to 8.00.

In turn, `CNC[C@@H]1CCOc2c(-c3cnccn3)cccc21` [Compound 35] gave a pEC50 of 7.00 to 8.00. The value for `NC[C@@H]1CCOc2c(-c3ccnc(C(F)(F)F)c3)cccc21` [Compound 9, 1-[(4R)-8-[2-(trifluoromethyl)pyridin-4-yl]-3,4-dihydro-2H-1-benzopyran-4-yl]methanamine] was 9.00 to 10.00; that for `CNC[C@@H]1CCOc2c(-c3ccncc3C)cccc21` [Compound 21, methyl({[(4R)-8-(3-methylpyridin-4-yl)-3,4-dihydro-2H-1-benzopyran-4-yl]methyl})amine] was 7.00 to 8.00; that for `CNC[C@@H]1CCOc2c(-c3ccc(C(F)(F)F)nc3)cccc21` [Compound 8, methyl({[(4R)-8-[6-(trifluoromethyl)pyridin-3-yl]-3,4-dihydro-2H-1-benzopyran-4-yl]methyl})amine] was 7.00 to 8.00. Regarding `NC[C@@H]1CCOc2c(-c3cncs3)cccc21` [Compound 38], the pEC50 is 9.00 to 10.00. For `CNC[C@@H]1CCOc2c(-c3cnc[nH]3)cccc21` [Compound 45, {[(4R)-8-(1H-imidazol-5-yl)-3,4-dihydro-2H-1-benzopyran-4-yl]methyl}(methyl)amine], the pEC50 is 8.00 to 9.00. For the compound `CNC[C@@H]1CCOc2c(-c3ccn(C)n3)cccc21` [Compound 55, (R)—N-methyl-1-(8-(1-methyl-1H-pyrazol-3-yl)chroman-4-yl)methanamine], the pEC50 is 7.00 to 8.00.
